Tests used:
[1] = kinase inhibitors blocking P. berghei liver stage, confirmation, cell-based, HepG2, luciferase, host viability, known kinase inhibitors (AID 686982); settings: P. berghei liver stage in HepG2, luciferase, 48 h; measured here: HepG2 viability, % of control; at 10 µM; stronger effect = lower value
[2] = tested on: P. berghei liver stage in HepG2, luciferase, 48 h; assay: as above; settings: at 10 µM; stronger effect = lower value

Row | SMILES | viability [1] [%] | parasite load, % of control [2] [%]
1 | Fc1ccc(-c2c(-c3ccncc3)[nH]c3cccnc23)cc1 | 163 | 1.19
2 | COc1cc[nH]c1C=C1C(=O)Nc2ccc(F)c(C#CC3(O)CCOCC3)c21 | 111 | 1.05
3 | Cc1ccc2c(-c3ccnc(Nc4ccccc4)n3)c(-c3ccc(F)cc3)nn2n1 | 206 | 1.15

From PubChem BioAssay AID686982
